Results published in US8741836B2, “Polypeptides” (Novo Nordisk A/S, priority 2011, dated 2014).
Starred links: 1 amine or outer side, 2 acyl side, 3 side chain; linkers in the order of their positions; H or OH if unused. Positions of bridges follow the written chain, without caps; N, C: chain ends. Residues, ends and D or L forms follow the SMILES beside them. Groups on a side chain read outwards from the residue. *: point of attachment. C20 diacid = O=C(O)CCCCCCCCCCCCCCCCCCC(=O)*; γGlu = O=C(O)[C@H](CCC(=O)[*:2])N[*:1]; AEEA = NCCOCCOCC(=O)O

Assay: Assay (III) ThT fibrillation assay for physical stability
Assay type: physicochemical
Conditions: pH 4.0
Method in brief: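 Freshly prepared, pH-adjusted formulations with 1 μM ThT incubated at 37 °C under 960 rpm orbital shaking (1 mm), fluorescence (ex 444, em 485 nm) read every 20 min. […] Peptide content before and after measured by reverse-phase HPLC against pramlintide standard.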

ThT pH 4.0 lag time (physical stability in fibrillogenesis assay), >45 h:
CC[C@H](C)[C@H](NC(=O)[C@@H]1CCCN1C(=O)CNC(=O)[C@H](Cc1ccccc1)NC(=O)[C@H](CC(N)=O)NC(=O)[C@H](CCCCNC(=O)COCCOCCNC(=O)COCCOCCNC(=O)CC[C@H](NC(=O)CCCCCCCCCCCCCCCCCCC(=O)O)C(=O)O)NC(=O)[C@H](CO)NC(=O)[C@H](CO)NC(=O)[C@H](CCCNC(=N)N)NC(=O)[C@@H](NC(=O)[C@H](CC(C)C)NC(=O)[C@H](Cc1ccccc1)NC(=O)[C@H](CCC(=O)O)NC(=O)[C@H](C)NC(=O)[C@H](CC(C)C)NC(=O)[C@H](CCCNC(=N)N)NC(=O)[C@H](CCC(N)=O)NC(=O)[C@@H](NC(=O)[C@H](C)NC(=O)[C@@H]1CSSC[C@H](NC(=O)[C@@H](N)CCCCN)C(=O)N[C@@H](CC(N)=O)C(=O)N[C@@H]([C@@H](C)O)C(=O)N[C@@H](C)C(=O)N[C@@H]([C@@H](C)O)C(=O)N1)[C@@H](C)O)C(C)C)C(=O)N[C@@H](CC(C)C)C(=O)N[C@@H](CO)C(=O)N[C@@H](CCCNC(=N)N)C(=O)N[C@H](C(=O)N[C@@H](CC(N)=O)C(=O)N[C@H](C(=O)NCC(=O)N[C@@H](CO)C(=O)N[C@@H](CCCNC(=N)N)C(=O)N[C@H](C(=O)N[C@@H](Cc1ccc(O)cc1)C(N)=O)[C@@H](C)O)C(C)C)[C@@H](C)O [Example 150, N-epsilon21-[2-(2-{2-[2-(2-{2-[(S)-4-Carboxy-4-(19-carboxyheptadecanoylamino)butyrylamino]ethoxy}ethoxy)acetylamino]ethoxy}ethoxy)acetyl]-[Glu14,Arg18,Lys21,Ser28,Arg29,Arg35]-pramlintide] (H-KCNTATCATQRLAEFLVRSSK([AEEA-AEEA-γGlu-C20 diacid])NFGPILSRTNVGSRTY-NH2; disulfide 2-7)
CC[C@H](C)[C@H](NC(=O)[C@@H]1CCCN1C(=O)CNC(=O)[C@H](Cc1ccccc1)NC(=O)[C@H](CC(N)=O)NC(=O)[C@H](CC(N)=O)NC(=O)[C@H](CO)NC(=O)[C@H](CO)NC(=O)[C@H](Cc1c[nH]cn1)NC(=O)[C@H](CCCNC(=N)N)NC(=O)[C@H](CC(C)C)NC(=O)[C@H](Cc1ccccc1)NC(=O)[C@H](CCC(=O)O)NC(=O)[C@H](C)NC(=O)[C@H](CC(C)C)NC(=O)[C@H](CCCNC(=N)N)NC(=O)[C@H](CCC(N)=O)NC(=O)[C@@H](NC(=O)[C@H](C)NC(=O)[C@@H]1CSSC[C@H](NC(=O)[C@H](CCCCN)NC(=O)[C@H](CCC(=O)O)NC(=O)CC[C@H](NC(=O)CCCCCCCCCCCCCCCCCCC(=O)O)C(=O)O)C(=O)N[C@@H](CC(N)=O)C(=O)N[C@@H]([C@@H](C)O)C(=O)N[C@@H](C)C(=O)N[C@@H]([C@@H](C)O)C(=O)N1)[C@@H](C)O)C(=O)N[C@@H](CC(C)C)C(=O)N1CCC[C@H]1C(=O)N1CCC[C@H]1C(=O)N[C@H](C(=O)N[C@@H](CC(N)=O)C(=O)N[C@H](C(=O)NCC(=O)N[C@@H](CO)C(=O)N[C@@H](Cc1c[nH]cn1)C(=O)N[C@H](C(=O)N[C@@H](Cc1ccc(O)cc1)C(N)=O)[C@@H](C)O)C(C)C)[C@@H](C)O [Example 58, N-alpha-[(S)-4-Carboxy-4-(19-carboxynonadecanoylamino)butyryl]-Glu-[Glu14,Arg17,His35]-pramlintide] ({C20 diacid-γGlu}-EKCNTATCATQRLAEFLRHSSNNFGPILPPTNVGSHTY-NH2; disulfide 3-8 (inferred); C-terminus assumed)

Same assay, conditions: pH 4.0, ThT fibrillation assay

ThT pH 4.0 lag time, >45 h:
CC(C)C[C@H](NC(=O)[C@H](CCCNC(=N)N)NC(=O)[C@H](CCC(N)=O)NC(=O)[C@@H](NC(=O)[C@H](C)NC(=O)[C@@H]1CSSC[C@H](NC(=O)[C@H](CCCCN)NC(=O)CC[C@H](NC(=O)CCCCCCCCCCCCCCCCCCC(=O)O)C(=O)O)C(=O)N[C@@H](CC(N)=O)C(=O)N[C@@H]([C@@H](C)O)C(=O)N[C@@H](C)C(=O)N[C@@H]([C@@H](C)O)C(=O)N1)[C@@H](C)O)C(=O)N[C@@H](C)C(=O)N[C@@H](CCC(=O)O)C(=O)N[C@@H](Cc1ccccc1)C(=O)N[C@@H](CC(C)C)C(=O)N[C@@H](CCCNC(=N)N)C(=O)N[C@@H](Cc1c[nH]cn1)C(=O)N[C@@H](CO)C(=O)N[C@@H](CO)C(=O)N[C@@H](CC(N)=O)C(=O)N[C@@H](CC(N)=O)C(=O)N[C@@H](Cc1ccccc1)C(=O)NCC(=O)N[C@@H](C)C(=O)N1CCC[C@H]1C(=O)N[C@@H](CC(C)C)C(=O)N[C@@H](CO)C(=O)N[C@@H](CO)C(=O)N[C@H](C(=O)N[C@@H](CC(N)=O)C(=O)N[C@H](C(=O)NCC(=O)N[C@@H](CO)C(=O)N[C@@H](Cc1c[nH]cn1)C(=O)N[C@H](C(=O)N[C@@H](Cc1ccc(O)cc1)C(N)=O)[C@@H](C)O)C(C)C)[C@@H](C)O [Example 65, N-alpha-[(S)-4-Carboxy-4-(19-carboxynonadecanoylamino)butyryl]-[Glu14,Arg17,Ala25,Pro26,Ser28,Ser29,His35]-pramlintide] ({C20 diacid-γGlu}-KCNTATCATQRLAEFLRHSSNNFGAPLSSTNVGSHTY-NH2; disulfide 2-7)
CC[C@H](C)[C@H](NC(=O)[C@@H]1CCCN1C(=O)CNC(=O)[C@H](Cc1ccccc1)NC(=O)[C@H](CC(N)=O)NC(=O)[C@H](CC(N)=O)NC(=O)[C@H](CO)NC(=O)[C@H](CO)NC(=O)[C@H](Cc1c[nH]cn1)NC(=O)[C@H](Cc1c[nH]cn1)NC(=O)[C@H](CC(C)C)NC(=O)[C@H](Cc1ccccc1)NC(=O)[C@H](CCC(=O)O)NC(=O)[C@H](C)NC(=O)[C@H](CC(C)C)NC(=O)[C@H](CCCNC(=N)N)NC(=O)[C@H](CCC(N)=O)NC(=O)[C@@H](NC(=O)[C@H](C)NC(=O)[C@@H]1CSSC[C@H](NC(=O)[C@H](CCCCN)NC(=O)CC[C@H](NC(=O)CCCCCCCCCCCCCCCCCCC(=O)O)C(=O)O)C(=O)N[C@@H](CC(N)=O)C(=O)N[C@@H]([C@@H](C)O)C(=O)N[C@@H](C)C(=O)N[C@@H]([C@@H](C)O)C(=O)N1)[C@@H](C)O)C(=O)N[C@@H](CC(C)C)C(=O)N1CCC[C@H]1C(=O)N1CCC[C@H]1C(=O)N[C@H](C(=O)N[C@@H](CC(N)=O)C(=O)N[C@H](C(=O)NCC(=O)N[C@@H](Cc1c[nH]cn1)C(=O)N[C@@H](CC(N)=O)C(=O)N[C@H](C(=O)N[C@@H](Cc1ccc(O)cc1)C(N)=O)[C@@H](C)O)C(C)C)[C@@H](C)O [Example 115, N-alpha-[(S)-4-Carboxy-4-(19-carboxynonadecanoylamino)butyryl]-[Glu14,His17,His34]-pramlintide] ({C20 diacid-γGlu}-KCNTATCATQRLAEFLHHSSNNFGPILPPTNVGHNTY-NH2; disulfide 2-7 (inferred))
CC[C@H](C)[C@H](NC(=O)[C@@H]1CCCN1C(=O)CNC(=O)[C@H](Cc1ccccc1)NC(=O)[C@H](CC(N)=O)NC(=O)[C@H](CC(N)=O)NC(=O)[C@H](CO)NC(=O)[C@H](CO)NC(=O)[C@H](Cc1c[nH]cn1)NC(=O)[C@H](Cc1c[nH]cn1)NC(=O)[C@H](CC(C)C)NC(=O)[C@H](Cc1ccccc1)NC(=O)[C@H](CCC(=O)O)NC(=O)[C@H](C)NC(=O)[C@H](CC(C)C)NC(=O)[C@H](CCCNC(=N)N)NC(=O)[C@H](CCC(N)=O)NC(=O)[C@@H](NC(=O)[C@H](C)NC(=O)[C@@H]1CSSC[C@H](NC(=O)[C@H](CCCCN)NC(=O)CC[C@H](NC(=O)CCCCCCCCCCCCCCCCCCC(=O)O)C(=O)O)C(=O)N[C@@H](CC(N)=O)C(=O)N[C@@H]([C@@H](C)O)C(=O)N[C@@H](C)C(=O)N[C@@H]([C@@H](C)O)C(=O)N1)[C@@H](C)O)C(=O)N[C@@H](CC(C)C)C(=O)N1CCC[C@H]1C(=O)N1CCC[C@H]1C(=O)N[C@H](C(=O)N[C@@H](CC(N)=O)C(=O)N[C@@H](Cc1c[nH]cn1)C(=O)NCC(=O)N[C@@H](CO)C(=O)N[C@@H](CC(N)=O)C(=O)N[C@H](C(=O)N[C@@H](Cc1ccc(O)cc1)C(N)=O)[C@@H](C)O)[C@@H](C)O [Example 116, N-alpha-[(S)-4-Carboxy-4-(19-carboxynonadecanoylamino)butyryl]-[Glu14,His17,His32]-pramlintide] ({C20 diacid-γGlu}-KCNTATCATQRLAEFLHHSSNNFGPILPPTNHGSNTY-NH2; disulfide 2-7)
CC[C@H](C)[C@H](NC(=O)[C@@H]1CCCN1C(=O)CNC(=O)[C@H](Cc1ccccc1)NC(=O)[C@H](CC(N)=O)NC(=O)[C@H](CO)NC(=O)[C@H](CO)NC(=O)[C@H](CO)NC(=O)[C@H](Cc1c[nH]cn1)NC(=O)[C@H](CCCNC(=N)N)NC(=O)[C@H](CC(C)C)NC(=O)[C@H](Cc1ccccc1)NC(=O)[C@H](CCC(=O)O)NC(=O)[C@H](C)NC(=O)[C@H](CC(C)C)NC(=O)[C@H](CCCNC(=N)N)NC(=O)[C@H](CCC(N)=O)NC(=O)[C@@H](NC(=O)[C@H](C)NC(=O)[C@@H]1CSSC[C@H](NC(=O)[C@H](Cc2c[nH]cn2)NC(=O)CC[C@H](NC(=O)CCCCCCCCCCCCCCCCCCC(=O)O)C(=O)O)C(=O)N[C@@H](CC(N)=O)C(=O)N[C@@H]([C@@H](C)O)C(=O)N[C@@H](C)C(=O)N[C@@H]([C@@H](C)O)C(=O)N1)[C@@H](C)O)C(=O)N[C@@H](CC(C)C)C(=O)N[C@@H](CO)C(=O)N[C@@H](CO)C(=O)N[C@H](C(=O)N[C@@H](CC(N)=O)C(=O)N[C@H](C(=O)NCC(=O)N[C@@H](CO)C(=O)N[C@@H](Cc1c[nH]cn1)C(=O)N[C@H](C(=O)N[C@@H](Cc1ccc(O)cc1)C(N)=O)[C@@H](C)O)C(C)C)[C@@H](C)O [Example 111, N-alpha-[(S)-4-Carboxy-4-(19-carboxynonadecanoylamino)butyryl]-[His1,Glu14,Arg17,Ser21,Ser28,Ser29,His35]-pramlintide] ({C20 diacid-γGlu}-HCNTATCATQRLAEFLRHSSSNFGPILSSTNVGSHTY-NH2; disulfide 2-7)
CC[C@H](C)[C@H](NC(=O)[C@@H]1CCCN1C(=O)CNC(=O)[C@H](Cc1ccccc1)NC(=O)[C@H](CC(N)=O)NC(=O)[C@H](CC(N)=O)NC(=O)[C@H](CO)NC(=O)[C@H](CO)NC(=O)[C@H](Cc1c[nH]cn1)NC(=O)[C@H](CCCNC(=N)N)NC(=O)[C@H](CC(C)C)NC(=O)[C@H](Cc1ccccc1)NC(=O)[C@H](CCC(=O)O)NC(=O)[C@H](C)NC(=O)[C@H](CC(C)C)NC(=O)[C@H](CCCNC(=N)N)NC(=O)[C@H](CCC(N)=O)NC(=O)[C@@H](NC(=O)[C@H](C)NC(=O)[C@@H]1CSSC[C@H](NC(=O)[C@H](CCCCN)NC(=O)[C@H](CCC(=O)O)NC(=O)CC[C@H](NC(=O)CCCCCCCCCCCCCCCCCCC(=O)O)C(=O)O)C(=O)N[C@@H](CC(N)=O)C(=O)N[C@@H]([C@@H](C)O)C(=O)N[C@@H](C)C(=O)N[C@@H]([C@@H](C)O)C(=O)N1)[C@@H](C)O)C(=O)N[C@@H](CC(C)C)C(=O)N1CCC[C@H]1C(=O)N1CCC[C@H]1C(=O)N[C@H](C(=O)N[C@@H](CC(N)=O)C(=O)N[C@H](C(=O)NCC(=O)N[C@@H](CO)C(=O)N[C@@H](Cc1c[nH]cn1)C(=O)N[C@H](C(=O)N[C@@H](Cc1ccc(O)cc1)C(N)=O)[C@@H](C)O)C(C)C)[C@@H](C)O [Example 58, N-alpha-[(S)-4-Carboxy-4-(19-carboxynonadecanoylamino)butyryl]-Glu-[Glu14,Arg17,His35]-pramlintide] ({C20 diacid-γGlu}-EKCNTATCATQRLAEFLRHSSNNFGPILPPTNVGSHTY-NH2; disulfide 3-8 (inferred); C-terminus assumed)
